Data published in ChEMBL document CHEMBL1139881, “A tetrazolyl-substituted subtype-selective AMPA receptor agonist” (J Med Chem, 2007).

Key:
[1] = target: Glutamate receptor ionotropic, kainate 2 (Rattus norvegicus, UniProt P42260); assay: Displacement of [3H]KA from rat recombinant GluR6 expressed in Sf9 cells
[2] = Displacement of [3H]KA from kainate receptor in rat synaptosomes; format: subcellular, Brain
[3] = Displacement of [3H]AMPA from AMPA receptor in rat synaptosomes; format: subcellular, Brain
Glutamate NMDA receptor [4] = assay: Displacement of [3H]CGP 39653 from NMDA receptor in rat synaptosomes; format: subcellular, Brain
Glutamate receptor 1 = Glutamate receptor 1 (Rattus norvegicus, UniProt P19490); assay: biochemical
Description: Displacement of [3H]AMPA from rat recombinant GluR1 expressed in Sf9 cells

Glutamate receptor 3 = Glutamate receptor 3 (Rattus norvegicus, UniProt P19492); assay: biochemical
Description: Displacement of [3H]AMPA from rat recombinant GluR3 expressed in Sf9 cells

[5] = target: Glutamate receptor ionotropic, kainate 1 (Rattus norvegicus, UniProt P22756); assay: biochemical
Description: Displacement of [3H]SYM 2081 from rat recombinant GluR5 expressed in Sf9 cells

Glutamate receptor 4 = Glutamate receptor 4 (Rattus norvegicus, UniProt P19493); assay: biochemical
Description: Displacement of [3H]AMPA from rat recombinant GluR4 expressed in Sf9 cells

[6] = Activity at ionotropic GluR in rat cortical wedge by electrophysiology assay
Glutamate receptor 2 = Glutamate receptor 2 (Rattus norvegicus, UniProt P19491); assay: biochemical
Description: Displacement of [3H]AMPA from rat recombinant GluR2 expressed in Sf9 cells

Glutamate NMDA receptor [7] = assay: Displacement of [3H][…] from NMDA receptor in rat synaptosomes; format: subcellular, Brain
[8] = Agonist activity at GluR2 L483Y mutant expressed in Xenopus laevis oocytes assessed as by effect on glutamate-induced current by two-electrode voltage clamp assay; format: functional, cell-based; details: Homo sapiens, Oocyte
[9] = Agonist activity at GluR2 L483Y mutant expressed in Xenopus laevis oocytes assessed as by effect on glutamate-induced current relative to glutamate; format: functional, Homo sapiens, Oocyte

Chain of Glutamate receptor 4 (P19493 whole entry): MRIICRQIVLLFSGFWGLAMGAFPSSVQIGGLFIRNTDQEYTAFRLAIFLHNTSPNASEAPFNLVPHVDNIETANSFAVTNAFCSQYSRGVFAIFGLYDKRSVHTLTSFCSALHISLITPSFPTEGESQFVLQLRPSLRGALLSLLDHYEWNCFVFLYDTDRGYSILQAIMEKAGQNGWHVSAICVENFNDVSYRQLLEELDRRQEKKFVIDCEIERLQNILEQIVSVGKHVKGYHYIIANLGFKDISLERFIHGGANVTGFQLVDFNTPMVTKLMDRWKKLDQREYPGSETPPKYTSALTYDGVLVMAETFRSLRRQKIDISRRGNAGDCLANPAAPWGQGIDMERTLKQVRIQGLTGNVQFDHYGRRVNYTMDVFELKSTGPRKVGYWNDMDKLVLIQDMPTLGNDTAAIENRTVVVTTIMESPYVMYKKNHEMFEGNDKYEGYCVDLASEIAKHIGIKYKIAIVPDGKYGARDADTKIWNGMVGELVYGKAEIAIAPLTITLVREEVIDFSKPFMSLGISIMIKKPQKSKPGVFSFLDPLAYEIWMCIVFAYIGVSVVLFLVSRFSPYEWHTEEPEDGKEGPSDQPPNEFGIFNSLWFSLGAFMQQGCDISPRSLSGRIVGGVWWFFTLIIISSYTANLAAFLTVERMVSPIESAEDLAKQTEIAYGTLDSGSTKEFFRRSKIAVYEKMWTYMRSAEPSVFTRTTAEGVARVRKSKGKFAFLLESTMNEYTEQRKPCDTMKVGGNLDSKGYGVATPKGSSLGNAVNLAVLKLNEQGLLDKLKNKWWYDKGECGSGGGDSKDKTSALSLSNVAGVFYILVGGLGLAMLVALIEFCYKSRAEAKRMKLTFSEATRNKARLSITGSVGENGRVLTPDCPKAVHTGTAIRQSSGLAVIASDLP
Chain of Glutamate receptor ionotropic, kainate 2 (P42260 whole entry): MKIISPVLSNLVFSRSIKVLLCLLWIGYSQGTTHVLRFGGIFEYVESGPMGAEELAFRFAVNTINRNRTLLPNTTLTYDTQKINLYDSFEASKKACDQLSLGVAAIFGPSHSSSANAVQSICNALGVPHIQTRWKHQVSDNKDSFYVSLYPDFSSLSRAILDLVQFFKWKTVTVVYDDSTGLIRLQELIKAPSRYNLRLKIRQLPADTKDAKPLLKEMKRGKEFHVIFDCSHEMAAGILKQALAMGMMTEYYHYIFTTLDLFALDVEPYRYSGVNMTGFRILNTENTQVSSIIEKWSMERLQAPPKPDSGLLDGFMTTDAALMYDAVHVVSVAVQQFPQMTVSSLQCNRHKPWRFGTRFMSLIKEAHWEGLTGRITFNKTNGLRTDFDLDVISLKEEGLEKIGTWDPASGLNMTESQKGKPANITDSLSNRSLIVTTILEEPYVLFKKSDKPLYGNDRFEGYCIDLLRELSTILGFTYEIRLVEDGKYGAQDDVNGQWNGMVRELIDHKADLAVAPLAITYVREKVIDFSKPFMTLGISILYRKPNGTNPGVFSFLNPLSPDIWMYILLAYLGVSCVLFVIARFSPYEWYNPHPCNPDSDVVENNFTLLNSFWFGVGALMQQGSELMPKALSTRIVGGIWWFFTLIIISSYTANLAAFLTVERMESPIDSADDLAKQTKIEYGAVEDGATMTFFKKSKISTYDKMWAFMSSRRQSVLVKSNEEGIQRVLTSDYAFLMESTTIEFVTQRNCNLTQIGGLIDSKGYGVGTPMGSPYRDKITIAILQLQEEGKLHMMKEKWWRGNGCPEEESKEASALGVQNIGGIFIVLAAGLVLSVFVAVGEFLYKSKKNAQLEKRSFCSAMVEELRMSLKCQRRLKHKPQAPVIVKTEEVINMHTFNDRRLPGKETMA
Chain of Glutamate receptor 3 (P19492 whole entry): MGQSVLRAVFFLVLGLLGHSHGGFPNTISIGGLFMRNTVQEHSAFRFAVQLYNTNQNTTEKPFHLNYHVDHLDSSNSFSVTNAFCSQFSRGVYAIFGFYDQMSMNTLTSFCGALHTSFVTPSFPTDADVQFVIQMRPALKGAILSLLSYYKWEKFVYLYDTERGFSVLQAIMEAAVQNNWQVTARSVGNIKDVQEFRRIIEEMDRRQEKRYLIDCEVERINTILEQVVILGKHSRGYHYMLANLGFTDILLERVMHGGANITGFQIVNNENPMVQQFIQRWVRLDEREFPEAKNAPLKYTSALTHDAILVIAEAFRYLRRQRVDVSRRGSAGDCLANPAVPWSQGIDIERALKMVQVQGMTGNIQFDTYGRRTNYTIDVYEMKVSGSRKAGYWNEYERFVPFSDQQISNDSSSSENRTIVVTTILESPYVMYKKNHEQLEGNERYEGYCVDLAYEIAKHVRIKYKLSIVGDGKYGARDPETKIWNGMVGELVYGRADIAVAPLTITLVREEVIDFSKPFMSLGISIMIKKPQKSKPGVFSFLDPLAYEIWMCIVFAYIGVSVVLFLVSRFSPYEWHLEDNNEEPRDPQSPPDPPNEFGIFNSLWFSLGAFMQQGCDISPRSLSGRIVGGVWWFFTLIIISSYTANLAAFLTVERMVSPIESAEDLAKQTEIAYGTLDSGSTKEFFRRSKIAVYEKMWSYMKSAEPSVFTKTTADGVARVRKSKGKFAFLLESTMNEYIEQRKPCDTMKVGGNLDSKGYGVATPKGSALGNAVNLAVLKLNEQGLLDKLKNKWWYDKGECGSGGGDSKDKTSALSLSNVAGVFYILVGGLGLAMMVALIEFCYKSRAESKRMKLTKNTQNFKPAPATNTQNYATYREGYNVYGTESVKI
Chain of Glutamate receptor ionotropic, kainate 1 (P22756 whole entry): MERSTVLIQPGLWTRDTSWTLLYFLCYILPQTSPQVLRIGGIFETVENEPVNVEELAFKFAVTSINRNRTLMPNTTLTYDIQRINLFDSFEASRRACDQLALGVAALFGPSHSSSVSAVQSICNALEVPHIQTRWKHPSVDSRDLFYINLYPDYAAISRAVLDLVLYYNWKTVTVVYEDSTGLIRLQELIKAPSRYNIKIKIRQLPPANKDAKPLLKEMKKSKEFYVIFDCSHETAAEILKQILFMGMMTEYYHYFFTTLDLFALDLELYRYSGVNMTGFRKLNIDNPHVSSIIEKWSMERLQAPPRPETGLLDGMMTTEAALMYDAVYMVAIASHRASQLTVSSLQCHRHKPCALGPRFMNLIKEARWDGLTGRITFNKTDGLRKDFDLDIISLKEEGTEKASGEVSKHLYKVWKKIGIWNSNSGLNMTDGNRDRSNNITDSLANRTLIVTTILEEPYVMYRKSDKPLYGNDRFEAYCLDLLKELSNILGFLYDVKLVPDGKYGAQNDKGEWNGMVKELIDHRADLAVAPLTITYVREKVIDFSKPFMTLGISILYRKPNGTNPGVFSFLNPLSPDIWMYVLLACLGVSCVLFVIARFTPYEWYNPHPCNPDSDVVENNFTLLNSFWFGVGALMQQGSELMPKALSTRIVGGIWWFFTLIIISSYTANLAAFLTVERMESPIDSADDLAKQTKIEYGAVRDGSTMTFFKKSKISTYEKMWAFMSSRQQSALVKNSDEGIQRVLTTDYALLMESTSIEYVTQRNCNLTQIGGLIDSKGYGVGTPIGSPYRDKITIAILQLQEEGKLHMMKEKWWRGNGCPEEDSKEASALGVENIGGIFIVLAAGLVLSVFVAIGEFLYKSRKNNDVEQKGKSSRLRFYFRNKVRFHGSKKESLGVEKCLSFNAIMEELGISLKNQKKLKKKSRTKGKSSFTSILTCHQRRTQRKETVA
Chain of Glutamate receptor 2 (P19491 whole entry): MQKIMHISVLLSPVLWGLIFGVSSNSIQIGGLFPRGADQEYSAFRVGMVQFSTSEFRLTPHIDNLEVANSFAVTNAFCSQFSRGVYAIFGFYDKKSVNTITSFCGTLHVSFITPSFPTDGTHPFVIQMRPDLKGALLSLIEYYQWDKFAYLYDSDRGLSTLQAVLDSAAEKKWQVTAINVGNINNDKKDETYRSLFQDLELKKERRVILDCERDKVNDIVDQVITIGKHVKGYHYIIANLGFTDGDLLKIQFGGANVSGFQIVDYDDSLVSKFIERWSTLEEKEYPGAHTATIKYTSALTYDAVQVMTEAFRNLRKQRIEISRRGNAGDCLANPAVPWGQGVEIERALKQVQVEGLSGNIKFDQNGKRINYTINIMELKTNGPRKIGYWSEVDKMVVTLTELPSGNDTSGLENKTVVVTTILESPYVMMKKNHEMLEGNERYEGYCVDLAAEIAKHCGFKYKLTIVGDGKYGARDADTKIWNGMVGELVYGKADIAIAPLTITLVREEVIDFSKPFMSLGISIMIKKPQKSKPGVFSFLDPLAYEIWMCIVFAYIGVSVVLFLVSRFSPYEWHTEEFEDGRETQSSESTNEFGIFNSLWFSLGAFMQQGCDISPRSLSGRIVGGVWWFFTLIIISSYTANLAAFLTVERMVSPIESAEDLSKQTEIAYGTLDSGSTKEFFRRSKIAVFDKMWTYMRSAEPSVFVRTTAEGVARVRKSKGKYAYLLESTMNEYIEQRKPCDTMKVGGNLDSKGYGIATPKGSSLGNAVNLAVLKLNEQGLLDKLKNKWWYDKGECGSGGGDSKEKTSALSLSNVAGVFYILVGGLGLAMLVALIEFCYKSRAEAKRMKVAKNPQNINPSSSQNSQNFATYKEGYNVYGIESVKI

Structure (SMILES)	Ki [1] [µM]	IC50 [2] [µM]	IC50 [3] [µM]	Ki (Glutamate NMDA receptor [4]) [µM]	Ki (Glutamate receptor 1) [µM]	Ki (Glutamate receptor 3) [µM]	Ki [5] [µM]	Ki (Glutamate receptor 4) [µM]	EC50 [6] [µM]	Ki (Glutamate receptor 2) [µM]	Ki (Glutamate NMDA receptor [7]) [µM]	EC50 [8] [µM]	Activity [9] [%]
CC(C)n1nnc(-c2onc(O)c2CC(N)C(=O)O)n1 (stereo not given)	> 100	> 100	6.2	> 100	0.01	3.7	31	2.4	71	2.9	–	–	–
Cn1nnc(-c2onc(O)c2C[C@H](N)C(=O)O)n1	19	11	0.009	–	–	–	8.1e-05	0.0027	–	0.0039	> 100	–	–
CCn1nnc(-c2onc(O)c2CC(N)C(=O)O)n1 (stereo not given)	> 100	> 100	0.13	> 100	0.15	0.045	2.9	0.044	3.5	0.08	–	–	–
CCCn1nnc(-c2onc(O)c2CC(N)C(=O)O)n1 (stereo not given)	> 100	> 100	2.5	> 100	0.0052	1.2	5.5	0.73	32	1.6	–	–	–
NC(Cc1c(O)noc1-c1nnnn1Cc1ccccc1)C(=O)O (racemic)	–	> 100	> 100	> 100	–	–	–	–	–	–	–	–	–
NC(Cc1c(O)noc1-c1nnn(Cc2ccccc2)n1)C(=O)O (racemic)	39	> 100	2.7	87	–	–	58	–	32	–	–	95	84
Cc1onc(O)c1CC(N)C(=O)O (racemic) [(R,S)-AMPA]	> 1000	> 100	–	–	–	–	–	–	–	–	–	–	–
